The source of these data is patent US20240148821A1, “PHARMACEUTICAL USE OF CYCLIC PEPTIDE COMPOUND” (CHUGAI SEIYAKU KABUSHIKI KAISHA, priority 2021, published 2024).

Numbered stars: 1 amine (or outer) side, 2 acyl side, 3 side chain; on linkers, the order of the positions; unused ones are H or OH. Bridge positions count the residues as written; N and C are the ends. Square brackets hold non-standard residues; d marks the D form. Peptide text beside a SMILES is read from it. * marks the point of attachment. hPhe(3-Cl-4-CF3) = N[C@@H](CCc1ccc(C(F)(F)F)c(Cl)c1)C(=O)O; NMePhe(3-CF3) = CN[C@@H](Cc1cccc(C(F)(F)F)c1)C(=O)O; NMePhe(2-CN) = CN[C@@H](Cc1ccccc1C#N)C(=O)O; NMePhe(4-Me) = CN[C@@H](Cc1ccc(C)cc1)C(=O)O; NMedβ3hAla = C[C@H](CC(=O)[*:2])N(C)[*:1]; NMeGly(cPent) = CN[C@H](C(=O)O)C1CCCC1; Phe(3-I) = N[C@@H](Cc1cccc(I)c1)C(=O)O; NMeCha = CN[C@@H](CC1CCCCC1)C(=O)O; NMehLeu = CN[C@@H](CCC(C)C)C(=O)O; NMeChg = CN[C@H](C(=O)O)C1CCCCC1; NMeF = CN[C@@H](Cc1ccccc1)C(=O)O; NMeI = CC[C@H](C)[C@H](NC)C(=O)O; NMeD = CN[C@@H](CC(=O)O)C(=O)O; NMeL = CN[C@@H](CC(C)C)C(=O)O; hLeu = CC(C)CC[C@H](N)C(=O)O; NMeV = CN[C@H](C(=O)O)C(C)C; d(β3hA) = C[C@@H](N)CC(=O)O; Azetidin(1-yl) = C1CN(*)C1; NMeA = CN[C@@H](C)C(=O)O; NMeAib = CNC(C)(C)C(=O)O; Piperidide = C1CCN(*)CC1; Pra = C#CC[C@H](N)C(=O)O; Ac5c = NC1(C(=O)O)CCCC1; Aze = O=C(O)[C@@H]1CCN1; Sar = CNCC(=O)O Bounds are passed on as bounds.

In the test the test system is Human pancreatic cancer cell line AsPC-1 (G12D mutation Kras). Put plainly: AsPC-1 cell growth inhibition (AsPC-1 CGI). It is filed as cell-based. Conditions: read-out: AsPC-1 cell growth inhibition, 50% growth inhibitory concentration (IC50 value); 96 hours, CellTiter-Glo, values classified in ranges.
Description: Test compounds were serially dilated with dimethyl sulfoxide, and 200 nL was then dispensed to a U-bottom 96-well plate using Labcyte Echo. […] The cell suspension was dispensed to a. plate containing a test compound at 100 μL per well and incubated at 37° C. in a 5% carbon dioxide gas incubator. 96 hours later, 80 μL of CellTiter-Glo (Promega) was added to each well and fluorescence was measured.
As to `CC[C@H](C)[C@@H]1NC(=O)[C@H](CCC(C)C)N(C)C(=O)C[C@@H](C(=O)N2CCC2)N(C)C(=O)[C@H](C2CCCC2)N(C)C(=O)C2(CCCC2)NC(=O)[C@@H]2CCCN2C(=O)[C@H](CCc2ccc(C(F)(F)F)c(Cl)c2)NC(=O)CN(C)C(=O)[C@H](CC2CCCCC2)N(C)C(=O)[C@@H]2CCN2C(=O)[C@H](C)N(C)C1=O` [Compound 806] ([NMehLeu]I[NMeA][Aze][NMeCha][Sar][hPhe(3-Cl-4-CF3)]P[Ac5c][NMeGly(cPent)][NMeD]-{Azetidin(1-yl)}; lactam N-11), the IC50 was at most 20 nM.

On to `CC[C@H](C)[C@@H]1NC(=O)[C@H](CC(C)C)N(C)C(=O)C[C@@H](C)NC(=O)[C@H](C(C)C)N(C)C(=O)C2(CCCC2)NC(=O)[C@@H]2CCCN2C(=O)[C@H](CCc2ccc(C(F)(F)F)c(Cl)c2)NC(=O)CN(C)C(=O)[C@H](Cc2cccc(C(F)(F)F)c2)N(C)C(=O)CN(C)C(=O)CN(C)C1=O` [Compound 1575] (cyclo([Ac5c][NMeV][d(β3hA)][NMeL]I[Sar][Sar][NMePhe(3-CF3)][Sar][hPhe(3-Cl-4-CF3)]P)), for which the IC50 is over 500 nM.

Regarding `CC[C@H](C)[C@@H]1NC(=O)[C@H](CC(C)C)N(C)C(=O)C[C@@H](C)N(C)C(=O)[C@H]([C@@H](C)CC)N(C)C(=O)C2(CCCC2)NC(=O)[C@@H]2CCCN2C(=O)[C@H](CCc2ccc(C(F)(F)F)c(Cl)c2)NC(=O)CN(C)C(=O)[C@H](Cc2ccc(C)cc2)N(C)C(=O)CN(C)C(=O)CN(C)C1=O` [Compound 1792] (cyclo([Ac5c][NMeI][NMedβ3hAla][NMeL]I[Sar][Sar][NMePhe(4-Me)][Sar][hPhe(3-Cl-4-CF3)]P)), the IC50 was at most 20 nM.

On to `C#CC[C@@H]1NC(=O)[C@H](CC(C)C)N(C)C(=O)C[C@@H](C(=O)N2CCCCC2)N(C)C(=O)[C@H](C2CCCCC2)N(C)C(=O)C2(CCCC2)NC(=O)[C@@H]2CCCN2C(=O)[C@H](CCc2ccc(C(F)(F)F)c(Cl)c2)NC(=O)CN(C)C(=O)[C@H](CC2CCCCC2)N(C)C(=O)CN(C)C(=O)CN(C)C1=O` [Compound 716] ([NMeL][Pra][Sar][Sar][NMeCha][Sar][hPhe(3-Cl-4-CF3)]P[Ac5c][NMeChg][NMeD]-Piperidide; lactam N-11), for which the IC50 was over 500 nM.

In the case of `CC(C)C[C@H]1C(=O)N[C@@H](C)C(=O)N(C)CC(=O)N(C)CC(=O)N(C)[C@@H](CC2CCCCC2)C(=O)N(C)CC(=O)N[C@@H](CCc2ccc(C(F)(F)F)c(Cl)c2)C(=O)N2CCC[C@H]2C(=O)NC2(CCCC2)C(=O)N(C)[C@@H](C2CCCCC2)C(=O)N(C)[C@H](C(=O)N2CCCCC2)CC(=O)N1C` [Compound 1802] ([NMeL]A[Sar][Sar][NMeCha][Sar][hPhe(3-Cl-4-CF3)]P[Ac5c][NMeChg][NMeD]-Piperidide; lactam N-11), the IC50 is over 500 nM.

Take `CC[C@H](C)[C@@H]1NC(=O)[C@H](CC(C)C)N(C)C(=O)C[C@@H](C)NC(=O)[C@H](C(C)C)N(C)C(=O)C2(CCCC2)NC(=O)[C@@H]2CCCN2C(=O)[C@H](CCc2ccc(C(F)(F)F)c(Cl)c2)NC(=O)CN(C)C(=O)[C@H](Cc2ccccc2C#N)N(C)C(=O)CN(C)C(=O)CN(C)C1=O` [Compound 767] (cyclo([Ac5c][NMeV][d(β3hA)][NMeL]I[Sar][Sar][NMePhe(2-CN)][Sar][hPhe(3-Cl-4-CF3)]P)): the IC50 was over 500 nM.

Consider `C#CC[C@@H]1NC(=O)[C@H](Cc2cccc(I)c2)NC(=O)CN(C)C(=O)[C@H](Cc2ccccc2)N(C)C(=O)[C@@H]2CCN2C(=O)[C@H](C)N(C)C(=O)[C@H]([C@@H](C)CC)NC(=O)[C@H](CC(C)C)N(C)C(=O)C[C@@H](C(=O)N2CCCCC2)N(C)C(=O)[C@H](CC(C)C)NC(=O)C(C)(C)N(C)C1=O` [Compound 1313] ([NMeL]I[NMeA][Aze][NMeF][Sar][Phe(3-I)][Pra][NMeAib]L[NMeD]-Piperidide; lactam N-11), for which the IC50 was over 500 nM.

In the case of `CC[C@H](C)[C@@H]1NC(=O)[C@H](C)N(C)C(=O)C[C@@H](C)NC(=O)[C@H](C(C)C)N(C)C(=O)C2(CCCC2)NC(=O)[C@@H]2CCCN2C(=O)[C@H](CCc2ccc(C(F)(F)F)c(Cl)c2)NC(=O)[C@H]2CCCN2C(=O)[C@H](CC2CCCCC2)N(C)C(=O)[C@@H]2CCCN2C(=O)CN(C)C1=O` [Compound 666] (cyclo([Ac5c][NMeV][d(β3hA)][NMeA]I[Sar]P[NMeCha][dP][hPhe(3-Cl-4-CF3)]P)), the IC50 was over 500 nM.

As to `CC(C)CC[C@@H]1NC(=O)[C@H](CC(C)C)N(C)C(=O)C[C@@H](C(=O)N2CCCCC2)N(C)C(=O)[C@H](C2CCCCC2)N(C)C(=O)C2(CCCC2)NC(=O)[C@@H]2CCCN2C(=O)[C@H](CCc2ccc(C(F)(F)F)c(Cl)c2)NC(=O)CN(C)C(=O)[C@H](CC2CCCCC2)N(C)C(=O)CN(C)C(=O)CN(C)C1=O` [Compound 1651] ([NMeL][hLeu][Sar][Sar][NMeCha][Sar][hPhe(3-Cl-4-CF3)]P[Ac5c][NMeChg][NMeD]-Piperidide; lactam N-11), the IC50 was over 500 nM.

Regarding `CC[C@H](C)[C@@H]1NC(=O)[C@H](CC(C)C)N(C)C(=O)C[C@@H](C)NC(=O)[C@H](C2CCCCC2)N(C)C(=O)C2(CCCC2)NC(=O)[C@@H]2CCCN2C(=O)[C@H](CCc2ccc(C(F)(F)F)c(Cl)c2)NC(=O)CN(C)C(=O)[C@H](Cc2ccc(C)cc2)N(C)C(=O)CN(C)C(=O)CN(C)C1=O` [Compound 1856] (cyclo([Ac5c][NMeChg][d(β3hA)][NMeL]I[Sar][Sar][NMePhe(4-Me)][Sar][hPhe(3-Cl-4-CF3)]P)), the IC50 was over 500 nM.
